{
  "source": "paper PMC9516332",
  "about": "(Frontiers in Oncology, 2022)",
  "key": {"[1]": {"test_system": "134 cancer cell lines"}, "[2]": {"test_system": "134 cancer cell lines", "assay": "Cell viability assay (ATPlite, 72 hours), IC50 on cancer cell line panel"}},
  "note": "Like-named read-outs stand apart in the source and are kept apart here.",
  "data": [
    {"smiles": "COc1cc2ncnc(Nc3ccc(F)c(Cl)c3)c2cc1NC(=O)/C=C/CN1CCCCC1", "note": "[dacomitinib]", "values": [
      {"measurement": "IC50", "setting": "[1]", "result": 0.018, "unit": "µM"},
      {"measurement": "lower IC50 of the most sensitive cell line compared to the panel average", "setting": "[2]; 134 cell line panel", "result": "more than 1000 fold"},
      {"measurement": "IC50", "setting": "[2]; HEC-6, read-out: IC50 in cell proliferation assay, HEC-6 cell line (EGFR p.A289V)", "result": 2.51, "unit": "µM"},
      {"measurement": "IC50", "setting": "[2]; Homo sapiens, 769-P, read-out: IC50 in cell proliferation assay, cell line 769-P", "result": 0.032, "unit": "µM"},
      {"measurement": "IC50", "setting": "[2]; Homo sapiens, 786-0, read-out: IC50 in cell proliferation assay, cell line 786-O", "result": 3.04, "unit": "µM"},
      {"measurement": "IC50", "setting": "[2]; Homo sapiens, A 172, read-out: IC50 in cell proliferation assay, cell line A-172", "result": 3.62, "unit": "µM"},
      {"measurement": "IC50", "setting": "[2]; Homo sapiens, A204, read-out: IC50 in cell proliferation assay, cell line A-204", "result": 2.51, "unit": "µM"},
      {"measurement": "IC50", "setting": "[2]; Homo sapiens, A498, read-out: IC50 in cell proliferation assay, cell line A-498", "result": 2.57, "unit": "µM"},
      {"measurement": "IC50", "setting": "[2]; Homo sapiens, A549, read-out: IC50 in cell proliferation assay, cell line A-549", "result": 6.63, "unit": "µM"},
      {"measurement": "IC50", "setting": "[2]; Homo sapiens, A704, read-out: IC50 in cell proliferation assay, cell line A-704", "result": 3.91, "unit": "µM"},
      {"measurement": "IC50", "setting": "[2]; Homo sapiens, A-375, read-out: IC50 in cell proliferation assay, cell line A-375 (BRAF p.V600E)", "result": 3.46, "unit": "µM"},
      {"measurement": "IC50", "setting": "[2]; Homo sapiens, A-427, read-out: IC50 in cell proliferation assay, cell line A-427", "result": 2.89, "unit": "µM"},
      {"measurement": "IC50", "setting": "[2]; Homo sapiens, ACHN, read-out: IC50 in cell proliferation assay, cell line ACHN", "result": 0.011, "unit": "µM"},
      {"measurement": "IC50", "setting": "[2]; Homo sapiens, AN3-CA, read-out: IC50 in cell proliferation assay, cell line AN3-CA (FGFR2 p.N549K)", "result": 3.75, "unit": "µM"},
      {"measurement": "IC50", "setting": "[2]; Homo sapiens, ASPC1, read-out: IC50 in cell proliferation assay, cell line AsPC-1", "result": 5.82, "unit": "µM"},
      {"measurement": "IC50", "setting": "[2]; Homo sapiens, AU565, read-out: IC50 in cell proliferation assay, cell line AU565 (ERBB2 amplification)", "result": 0.068, "unit": "µM"},
      {"measurement": "IC50", "setting": "[2]; Homo sapiens, BT-20, read-out: IC50 in cell proliferation assay, cell line BT-20", "result": 5.62, "unit": "µM"},
      {"measurement": "IC50", "setting": "[2]; Homo sapiens, BT-474, read-out: IC50 in cell proliferation assay, cell line BT-474 (ERBB2 amplification)", "result": 0.037, "unit": "µM"},
      {"measurement": "IC50", "setting": "[2]; Homo sapiens, BT-549, read-out: IC50 in cell proliferation assay, cell line BT-549", "result": 3.68, "unit": "µM"},
      {"measurement": "IC50", "setting": "[2]; Homo sapiens, BXPC-3, read-out: IC50 in cell proliferation assay, cell line BxPC-3", "result": 4.06, "unit": "µM"},
      {"measurement": "IC50", "setting": "[2]; Homo sapiens, C-33-A, read-out: IC50 in cell proliferation assay, cell line C-33 A", "result": 0.04, "unit": "µM"},
      {"measurement": "IC50", "setting": "[2]; Homo sapiens, CAL-27, read-out: IC50 in cell proliferation assay, cell line CAL-27", "result": 0.011, "unit": "µM"},
      {"measurement": "IC50", "setting": "[2]; Homo sapiens, CCF-STTG1, read-out: IC50 in cell proliferation assay, cell line CCF-STTG1", "result": 5.61, "unit": "µM"},
      {"measurement": "IC50", "setting": "[2]; Homo sapiens, CCRF-CEM, read-out: IC50 in cell proliferation assay, cell line CCRF-CEM", "result": 3.27, "unit": "µM"},
      {"measurement": "IC50", "setting": "[2]; Homo sapiens, COLO 205, read-out: IC50 in cell proliferation assay, cell line COLO 205 (BRAF p.V600E)", "result": 4.28, "unit": "µM"},
      {"measurement": "IC50", "setting": "[2]; Homo sapiens, COLO-829, read-out: IC50 in cell proliferation assay, cell line COLO 829 (BRAF p.V600E)", "result": 6.02, "unit": "µM"},
      {"measurement": "IC50", "setting": "[2]; Homo sapiens, DLD-1, read-out: IC50 in cell proliferation assay, cell line DLD-1", "result": 3.24, "unit": "µM"},
      {"measurement": "IC50", "setting": "[2]; Homo sapiens, DU-4475, read-out: IC50 in cell proliferation assay, cell line DU4475 (BRAF p.V600E)", "result": 5.24, "unit": "µM"},
      {"measurement": "IC50", "setting": "[2]; Homo sapiens, Daoy, read-out: IC50 in cell proliferation assay, cell line Daoy", "result": 3.77, "unit": "µM"},
      {"measurement": "IC50", "setting": "[2]; Homo sapiens, DoTc2-4510, read-out: IC50 in cell proliferation assay, cell line DoTc2 4510", "result": 0.012, "unit": "µM"},
      {"measurement": "IC50", "setting": "[2]; Homo sapiens, EOL1, read-out: IC50 in cell proliferation assay, cell line EoL-1 (FIP1L1-PDGFRA)", "result": 0.72, "unit": "µM"},
      {"measurement": "IC50", "setting": "[2]; Homo sapiens, FaDu, read-out: IC50 in cell proliferation assay, cell line FaDu", "result": 0.013, "unit": "µM"},
      {"measurement": "IC50", "setting": "[2]; Homo sapiens, G-361, read-out: IC50 in cell proliferation assay, cell line G-361 (BRAF p.V600E)", "result": 4.11, "unit": "µM"},
      {"measurement": "IC50", "setting": "[2]; Homo sapiens, HCC827, read-out: IC50 in cell proliferation assay, cell line HCC827 (EGFR exon19del)", "result": 0.00113, "unit": "µM"},
      {"measurement": "IC50", "setting": "[2]; Homo sapiens, HCC4006, read-out: IC50 in cell proliferation assay, cell line HCC4006 (EGFR exon19del)", "result": 0.00119, "unit": "µM"},
      {"measurement": "IC50", "setting": "[2]; Homo sapiens, HCT-15, read-out: IC50 in cell proliferation assay, cell line HCT 15", "result": 3.45, "unit": "µM"},
      {"measurement": "IC50", "setting": "[2]; Homo sapiens, HCT-116, read-out: IC50 in cell proliferation assay, cell line HCT 116", "result": 2.3, "unit": "µM"},
      {"measurement": "IC50", "setting": "[2]; Homo sapiens, HEC-1, read-out: IC50 in cell proliferation assay, HEC-1 cell line", "result": 1.91, "unit": "µM"},
      {"measurement": "IC50", "setting": "[2]; Homo sapiens, HEC-1B, read-out: IC50 in cell proliferation assay, HEC-1-B cell line (EGFR p.A864V)", "result": 0.014, "unit": "µM"},
      {"measurement": "IC50", "setting": "[2]; Homo sapiens, HL-60, read-out: IC50 in cell proliferation assay, HL-60 cell line", "result": 1.74, "unit": "µM"},
      {"measurement": "IC50", "setting": "[2]; Homo sapiens, HT, read-out: IC50 in cell proliferation assay, HT cell line", "result": 3.76, "unit": "µM"},
      {"measurement": "IC50", "setting": "[2]; Homo sapiens, HT-1080, read-out: IC50 in cell proliferation assay, HT-1080 cell line", "result": 2.79, "unit": "µM"},
      {"measurement": "IC50", "setting": "[2]; Homo sapiens, Hs746T, read-out: IC50 in cell proliferation assay, Hs 746.T cell line (MET exon14skip + amplification)", "result": 3.12, "unit": "µM"},
      {"measurement": "IC50", "setting": "[2]; Homo sapiens, Hs-578T, read-out: IC50 in cell proliferation assay, Hs 578T cell line", "result": 3.09, "unit": "µM"},
      {"measurement": "IC50", "setting": "[2]; Homo sapiens, HuTu80, read-out: IC50 in cell proliferation assay, HuTu 80 cell line", "result": 4.06, "unit": "µM"},
      {"measurement": "IC50", "setting": "[2]; Homo sapiens, J82, read-out: IC50 in cell proliferation assay, J82 cell line", "result": 3.95, "unit": "µM"},
      {"measurement": "IC50", "setting": "[2]; Homo sapiens, Jurkat E6.1, read-out: IC50 in cell proliferation assay, Jurkat E6.1 cell line", "result": 3.18, "unit": "µM"},
      {"measurement": "IC50", "setting": "[2]; Homo sapiens, K562, read-out: IC50 in cell proliferation assay, K-562 cell line", "result": 3.44, "unit": "µM"},
      {"measurement": "IC50", "setting": "[2]; Homo sapiens, KATO III, read-out: IC50 in cell proliferation assay, KATO III cell line (FGFR2 amplification)", "result": 2.96, "unit": "µM"},
      {"measurement": "IC50", "setting": "[2]; Homo sapiens, KG-1, read-out: IC50 in cell proliferation assay, KG-1 cell line (FGFR1OP2-FGFR1)", "result": 2.57, "unit": "µM"},
      {"measurement": "IC50", "setting": "[2]; Homo sapiens, KLE, read-out: IC50 in cell proliferation assay, KLE cell line", "result": 3.44, "unit": "µM"},
      {"measurement": "IC50", "setting": "[2]; Homo sapiens, KMS-11, read-out: IC50 in cell proliferation assay, KMS-11 cell line (FGFR3 p.Y373C)", "result": 3.54, "unit": "µM"},
      {"measurement": "IC50", "setting": "[2]; Homo sapiens, KU812, read-out: IC50 in cell proliferation assay, Ku812 cell line", "result": 3.2, "unit": "µM"},
      {"measurement": "IC50", "setting": "[2]; Homo sapiens, Kasumi 1, read-out: IC50 in cell proliferation assay, Kasumi-1 cell line (KIT p.N822K)", "result": 1.63, "unit": "µM"},
      {"measurement": "IC50", "setting": "[2]; Homo sapiens, LC-2-ad, read-out: IC50 in cell proliferation assay, LC-2/ad cell line (CCDC6-RET)", "result": 2.89, "unit": "µM"},
      {"measurement": "IC50", "setting": "[2]; Homo sapiens, LNCaP-Clone-FGC, read-out: IC50 in cell proliferation assay, LNCaP clone FGC cell line", "result": 7.97, "unit": "µM"},
      {"measurement": "IC50", "setting": "[2]; Homo sapiens, LS174T, read-out: IC50 in cell proliferation assay, LS174T cell line", "result": 2.67, "unit": "µM"},
      {"measurement": "IC50", "setting": "[2]; Homo sapiens, LS-411N, read-out: IC50 in cell proliferation assay, LS411N cell line (BRAF p.V600E)", "result": 4.24, "unit": "µM"},
      {"measurement": "IC50", "setting": "[2]; Homo sapiens, LoVo, read-out: IC50 in cell proliferation assay, LoVo cell line", "result": 4.3, "unit": "µM"},
      {"measurement": "IC50", "setting": "[2]; Homo sapiens, MCF7, read-out: IC50 in cell proliferation assay, MCF-7 cell line", "result": 12.9, "unit": "µM"},
      {"measurement": "IC50", "setting": "[2]; Homo sapiens, MDA-MB-231, read-out: IC50 in cell proliferation assay, MDA-MB-231 cell line", "result": 3.69, "unit": "µM"},
      {"measurement": "IC50", "setting": "[2]; Homo sapiens, MDA-MB-453, read-out: IC50 in cell proliferation assay, MDA-MB-453 cell line", "result": 3.25, "unit": "µM"},
      {"measurement": "IC50", "setting": "[2]; Homo sapiens, MDA-MB-468, read-out: IC50 in cell proliferation assay, MDA-MB-468 cell line", "result": 0.033, "unit": "µM"},
      {"measurement": "IC50", "setting": "[2]; Homo sapiens, MG-63, read-out: IC50 in cell proliferation assay, MG-63 cell line", "result": 4, "unit": "µM"},
      {"measurement": "IC50", "setting": "[2]; Homo sapiens, MIA PaCa-2, read-out: IC50 in cell proliferation assay, MIA PaCa-2 cell line", "result": 3.93, "unit": "µM"},
      {"measurement": "IC50", "setting": "[2]; Homo sapiens, MKN-45, read-out: IC50 in cell proliferation assay, MKN45 cell line (MET amplification)", "result": 4.25, "unit": "µM"},
      {"measurement": "IC50", "setting": "[2]; Homo sapiens, MOLM-13, read-out: IC50 in cell proliferation assay, MOLM-13 cell line (FLT3 ITD)", "result": 1.17, "unit": "µM"}
    ]}
  ]
}
